Measurements reported in PMC2709368 (The Journal of Biological Chemistry, 2009).

Molecular target: T1, prolectin (Homo sapiens, UniProt Q6ZS10)
T1 sequence (Q6ZS10 194-378 limits assumed): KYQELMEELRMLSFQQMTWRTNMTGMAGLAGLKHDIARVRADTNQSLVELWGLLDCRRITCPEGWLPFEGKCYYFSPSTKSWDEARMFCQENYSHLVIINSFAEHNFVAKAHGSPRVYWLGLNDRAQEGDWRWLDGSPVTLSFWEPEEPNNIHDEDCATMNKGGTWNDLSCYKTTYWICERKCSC
Test: solid-phase competition binding, […]-Man-BSA reporter
Conditions: competitive; immobilised extracellular domain; Ca2+-dependent site

SMILES | Relative KI
C[C@@H]1OC(O)[C@@H](O)[C@H](O)[C@@H]1O (stereo partly shown) [Fuc] | 1.1 ± 0.1 relative to KI of αMe-Man
CC(=O)N[C@H]1C(O)O[C@H](CO)[C@@H](O)[C@@H]1O (stereo partly shown) [GlcNAc] | 1.2 ± 0.1 relative to KI of αMe-Man
CC(=O)N[C@H]1C(O)O[C@H](CO)[C@@H](O[C@@H]2O[C@@H](C)[C@@H](O)[C@@H](O)[C@@H]2O)[C@@H]1O[C@@H]1O[C@H](CO)[C@H](O)[C@H](O)[C@H]1O (stereo partly shown) [Le^a] | 0.22 ± 0.01 relative to KI of αMe-Man
CC(=O)N[C@H]1C(O)O[C@H](CO)[C@@H](O[C@@H]2O[C@H](CO)[C@H](O)[C@H](O)[C@H]2O)[C@@H]1O[C@@H]1O[C@@H](C)[C@@H](O)[C@@H](O)[C@@H]1O (stereo partly shown) [Le^x] | 0.72 ± 0.08 relative to KI of αMe-Man
OC[C@H]1OC(O)[C@@H](O)[C@@H](O)[C@@H]1O (stereo partly shown) [Man] | 1.2 ± 0.1 relative to KI of αMe-Man
CO[C@H]1O[C@H](CO)[C@H](O)[C@H](O)[C@H]1O [αMe-Gal] | > 30 relative to KI of αMe-Man
CO[C@H]1O[C@H](CO)[C@@H](O)[C@H](O)[C@H]1O [αMe-Glc] | 3.2 ± 0.1 relative to KI of αMe-Man
